Data reported in patent US20250011651A1, “OIL DISPERSANT FORMULATION, METHODS AND USES THEREOF” (INSTITUTO SUPERIOR TÉCNICO, priority 2021, published 2025).

Assay: Hydrophilic-lipophilic balance (HLB)
Type: physicochemical
Details: single surfactant / MEL mixture
Excerpt: Dispersants currently used in oil spills are usually a blend of non-ionic and anionic surfactants dissolved in a solvent base. Surfactants are amphiphilic molecules containing both hydrophobic and hydrophilic regions, so they are soluble in both oil and water phases. An empirical parameter used for the classification of surfactants is the hydrophilic-lipophilic balance (HLB) number. The HLB is defined as: […]
Where Mh is the molecular weight of the hydrophilic head group of the surfactant molecule, and M is the molecular mass of the complete molecule. HLB is given on a scale of 1-20. […] A surfactant with an HLB between 8 and 12 may promote either type of emulsion, but generally promotes O/W emulsions.
In an embodiment, the results can be explained by providing the molecular level discussion of the synergy between MEL and polyethylene glycol sorbitan monooleate molecules. As explained earlier, MELs are hydrophobic and polyethylene glycol sorbitan monooleate is quite hydrophilic and water soluble. The HLB of the combination of the two surfactants can be calculated by the following expression: […]
Where, WM and WPGSE are, respectively, the weight fraction of MELs and polyethylene glycol sorbitan ester, in particular polyethylene glycol sorbitan monooleate, in the blend.

## polyethylene glycol sorbitan monooleate
  HLB: 15
